Results as given in patent US20260285816A1, “Piperazinyl-Modified Quinazolinyl-Aryl Urea Derivative, And Preparation Method And Use Thereof” (Guangxi Normal University, priority 2025, published 2026).
Like-named read-outs stand apart in the source and are kept apart here.

Tests used:
Type in all cases: cell-based, human
A549 cells = test: CCK-8 anti-proliferative assay, A549; settings: Table 16, comparative compounds 8-1 to 8-23, co-incubated 48 h, read-out: Anti-proliferative activity (IC50 ± standard deviation) A549
Protocol: (§1) The obtained quinazolinyl-aryl urea derivatives were screened for compounds with optimal activity using the following method.
(§2) Experimental Procedure for Anti-Proliferative Activity Evaluation: The CCK-8 assay was employed. Cells in logarithmic growth phase were harvested, adjusted to appropriate density, and uniformly seeded into 96-well plates using a multichannel pipette (180 μL cell suspension containing complete medium per well, 5,000 cells/well). Blank control wells (containing basal medium, CCK-8 solution, and DMSO only) were set. Cells were incubated at 37° C. under 5% CO2. After 70% confluency was reached, test compounds (target compounds/positive controls) were added at final concentrations of 1, 2, 4, 6, 8, 12, 16, 24, and 30 μM (3 repeated wells per concentration). Compounds were pre-dissolved in DMSO, sterilized, and diluted with medium before adding 20 μL/well. After co-incubation for designated durations, 10 μL CCK-8 solution was added per well followed by 1-4 h incubation (different cells have different incubation times). […] Inhibition rates were calculated as: (ODcontrol−ODtreatment)/ODcontrol×100%. Median inhibitory concentrations (IC50 values) were derived using Origin v8.0 software.

5637 cells = test: CCK-8 anti-proliferative assay, 5637; settings: Table 16, comparative compounds 8-1 to 8-23, co-incubated 48 h, read-out: Anti-proliferative activity (IC50 ± standard deviation) 5637
Protocol: as §1, §2

T24 cells = test: CCK-8 anti-proliferative assay, T24; settings: Table 16, comparative compounds 8-1 to 8-23, co-incubated 48 h, read-out: Anti-proliferative activity (IC50 ± standard deviation) T24
Description: (§3) The obtained quinazolinyl-aryl urea derivatives were screened for compounds with optimal activity using the following method. All cell lines employed in this experiment were of human origin, including: bladder cancer cells: J82, UM-UC-3, T24, 5637, pancreatic cancer cells: BxPC-3, PANC-1, osteosarcoma cells: 143B, MG-63, cervical cancer cells: HeLa, breast cancer cells: MCF-7, NSCLC cells: A549, hepatoblastoma cells: Hep G2, and ovarian cancer cells: SK-OV-3, as well as normal cell lines: immortalized ureteral epithelial cells (SV-HUC-1), embryonic lung fibroblasts (WI-38).
(§4) Experimental Procedure for Anti-Proliferative Activity Evaluation: The CCK-8 assay was employed. Cells in logarithmic growth phase were harvested, adjusted to appropriate density, and uniformly seeded into 96-well plates using a multichannel pipette (180 μL cell suspension containing complete medium per well, 5,000 cells/well). Blank control wells (containing basal medium, CCK-8 solution, and DMSO only) were set. Cells were incubated at 37° C. under 5% CO2. After 70% confluency was reached, test compounds (target compounds/positive controls) were added at final concentrations of 1, 2, 4, 6, 8, 12, 16, 24, and 30 μM (3 repeated wells per concentration). Compounds were pre-dissolved in DMSO, sterilized, and diluted with medium before adding 20 μL/well. After co-incubation for designated durations, 10 μL CCK-8 solution was added per well followed by 1-4 h incubation (different cells have different incubation times). The reaction was terminated, and OD (optical density) values at 450 nm were measured using a microplate reader. Inhibition rates were calculated as: (ODcontrol−ODtreatment)/ODcontrol×100%. Median inhibitory concentrations (IC50 values) were derived using Origin v8.0 software.

MCF-7 cells = test: CCK-8 anti-proliferative assay, MCF-7; settings: Table 16, comparative compounds 8-1 to 8-23, co-incubated 48 h, read-out: Anti-proliferative activity (IC50 ± standard deviation) MCF-7
Protocol: as §1, §2

Hep G2 cells = test: CCK-8 anti-proliferative assay, Hep G2; settings: Table 16, comparative compounds 8-1 to 8-23, co-incubated 48 h, read-out: Anti-proliferative activity (IC50 ± standard deviation) Hep G2
Description: as §3, §4

143B cells = test: CCK-8 anti-proliferative assay, 143B; settings: Homo sapiens, 143B; Table 14; comparative compounds; co-incubated 48 h; read-out: Anti-proliferative activity (IC50 ± standard deviation) 143B
Description: as §3, §4

MG-63 cells = test: CCK-8 anti-proliferative assay, MG-63; settings: Homo sapiens, MG-63; Table 14; comparative compounds; co-incubated 48 h; read-out: Anti-proliferative activity (IC50 ± standard deviation) MG-63
Description: as §3, §4

PANC-1 cells = test: CCK-8 anti-proliferative assay, PANC-1; settings: Homo sapiens, PANC-1; Table 15; comparative compounds; co-incubated 48 h; read-out: Anti-proliferative activity (IC50 ± standard deviation) PANC-1
Description: as §3, §4

BxPC-3 cells = test: CCK-8 anti-proliferative assay, BxPC-3; settings: Homo sapiens, BXPC-3; Table 15; comparative compounds; co-incubated 48 h; read-out: Anti-proliferative activity (IC50 ± standard deviation) BxPC-3
Description: as §3, §4

UM-UC-3 cells = test: CCK-8 anti-proliferative assay, UM-UC-3; settings: Homo sapiens, UMUC3; Table 14; comparative compounds; co-incubated 48 h; read-out: Anti-proliferative activity (IC50 ± standard deviation) UM-UC-3
Protocol: as §1, §2

SK-OV-3 cells = test: CCK-8 anti-proliferative assay, SK-OV-3; settings: Homo sapiens, SK-OV-3; Table 15; comparative compounds; co-incubated 48 h; read-out: Anti-proliferative activity (IC50 ± standard deviation) SK-OV-3
Protocol: as §1, §2

| Structure (SMILES) | IC50 (A549 cells; Homo sapiens, A549) | IC50 (T24 cells; Homo sapiens, T-24) | IC50 (MCF-7 cells; Homo sapiens, MCF7) | IC50 (PANC-1 cells) | IC50 (BxPC-3 cells) | IC50 (SK-OV-3 cells) | IC50 (5637 cells; Homo sapiens) | IC50 (Hep G2 cells; Homo sapiens, HepG2) | IC50 (143B cells) | IC50 (MG-63 cells) | IC50 (UM-UC-3 cells) | also measured |
| --- | --- | --- | --- | --- | --- | --- | --- | --- | --- | --- | --- | --- |
| COc1cc2ncnc(NCc3cccc(NC(=O)Nc4ccc(Cl)cc4)c3)c2cc1OCCCC(=O)N1CCC(N2CCOCC2)CC1 [Compound 8-15, reference compound] | 13.8 ± 0.35 µM | 19.1 ± 0.53 µM | 16.8 ± 0.32 µM |  |  |  | 14 ± 0.72 µM | > 30 µM |  |  |  |  |
| COc1cc2ncnc(NCc3cccc(NC(=O)Nc4c(Cl)cc(Cl)cc4Cl)c3)c2cc1OCCCC(=O)N1CCC(N2CCOCC2)CC1 [Compound 8-16, reference compound] | > 50 µM | > 30 µM | 15.9 ± 0.62 µM |  |  |  | > 30 µM | > 30 µM |  |  |  |  |
| COc1cc2ncnc(NCc3cccc(NC(=O)Nc4ccc(C(F)(F)F)cc4)c3)c2cc1OCCCC(=O)N1CCC(N2CCOCC2)CC1 [Compound 8-18, reference compound] | 18.8 ± 0.59 µM | 19.6 ± 0.45 µM | 13.2 ± 0.39 µM |  |  |  | 13.1 ± 0.24 µM | > 30 µM |  |  |  |  |
| COc1cc2ncnc(NCc3cccc(NC(=O)Nc4ccc(F)c(C(F)(F)F)c4)c3)c2cc1OCCCC(=O)N1CCC(N2CCOCC2)CC1 [Compound 8-19, reference compound] | 16.1 ± 0.71 µM | 26.2 ± 0.94 µM | 22.4 ± 0.82 µM |  |  |  | 17.9 ± 0.45 µM | > 30 µM |  |  |  |  |
| COc1cc2ncnc(NCc3cccc(NC(=O)Nc4ccccc4Cl)c3)c2cc1OCCCCCCN1CCC(CN2CCN(c3ccccn3)CC2)CC1 [Compound 8-20, reference compound] |  |  |  |  |  |  |  |  |  |  |  | IC50 (A549 cells): 22.4 ± 1.01 µM; IC50 (5637 cells): 14.1 ± 0.29 µM; IC50 (T24 cells): 18.4 ± 0.81 µM; IC50 (MCF-7 cells): 20.5 ± 0.38 µM; IC50 (Hep G2 cells): > 30 µM |
| COc1ccc(NC(=O)Nc2cccc(CNc3ncnc4cc(OC)c(OCCCCCCN5CCC(CN6CCN(c7ccccn7)CC6)CC5)cc34)c2)cc1 [Compound 8-21, reference compound] |  |  |  |  |  |  |  |  |  |  |  | IC50 (A549 cells): 11.9 ± 0.23 µM; IC50 (5637 cells): 6.61 ± 0.07 µM; IC50 (T24 cells): 5.42 ± 0.05 µM; IC50 (MCF-7 cells): 12.2 ± 0.32 µM; IC50 (Hep G2 cells): 14.1 ± 0.2 µM |
| COc1cc2ncnc(NCc3cccc(NC(=O)NCc4ccccc4)c3)c2cc1OCCCC(=O)N1CCC(N2CCOCC2)CC1 [Compound 8-23, reference compound] | > 30 µM | > 30 µM | 23.1 ± 0.92 µM |  |  |  | 26.8 ± 0.63 µM | > 30 µM |  |  |  |  |

Continued, in another order:

| IC50 (A549 cells; Homo sapiens, A549) | IC50 (T24 cells; Homo sapiens, T-24) | IC50 (MCF-7 cells; Homo sapiens, MCF7) | IC50 (PANC-1 cells) | IC50 (BxPC-3 cells) | IC50 (SK-OV-3 cells) | Structure (SMILES) | IC50 (5637 cells; Homo sapiens) | IC50 (Hep G2 cells; Homo sapiens, HepG2) | IC50 (143B cells) | IC50 (MG-63 cells) | IC50 (UM-UC-3 cells) | also measured |
| --- | --- | --- | --- | --- | --- | --- | --- | --- | --- | --- | --- | --- |
|  |  |  | > 30 µM | 18.6 ± 1.66 µM | 28.4 ± 1.46 µM | COc1cc2ncnc(NCc3cccc(NC(=O)Nc4ccccc4)c3)c2cc1OC [Compound I-1, reference compound] |  |  | 18.3 ± 1.74 µM | 27.1 ± 1.45 µM | > 30 µM |  |
|  |  |  | 24.4 ± 1.69 µM | 10.3 ± 0.59 µM | 10.1 ± 0.69 µM | COc1cc2ncnc(NCc3cccc(NC(=O)Nc4ccc(C)cc4)c3)c2cc1OC [Compound I-2, reference compound] |  |  | 6.34 ± 0.56 µM | 11.2 ± 0.67 µM | 11.2 ± 0.85 µM |  |
|  |  |  | 17.6 ± 1.48 µM | 7.78 ± 0.69 µM | 9.17 ± 0.58 µM | COc1cc2ncnc(NCc3cccc(NC(=O)Nc4ccc(C)cc4C)c3)c2cc1OC [Compound I-3, reference compound] |  |  | 5.94 ± 0.33 µM | 12.1 ± 0.76 µM | 9.02 ± 0.74 µM |  |
